According to ChEMBL document CHEMBL1201862, “PubChem BioAssay data set” (2004):
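Protocol summary: plate cells (96-well), add compound at 5 concentrations, incubate 48 h, interpolate endpoints linearly. The concentration for 50% growth inhibition is given as GI50.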 Activity calls are given as the source filed them. Rule as the data show it: active = GI50 up to about 1.1 µM and inactive = higher.

What was measured:
Assay in all cases: inhibition of tumour cell growth, NCI panel, 48 h
SF-539 = system: SF-539
RPMI-8226 = system: RPMI-8226
UACC-62 = system: UACC-62
LOX IMVI = system: LOX IMVI
HOP-18 = system: HOP-18
DMS-273 = system: DMS-273
HOP-62 = system: HOP-62
SF-268 = system: SF-268
HCC 2998 = system: HCC 2998
SNB-19 = system: SNB-19
NCI-H23 = system: NCI-H23
HL-60 = system: HL-60
LXFL 529 = system: LXFL 529
RXF 631 = system: RXF 631
CCRF-CEM = system: CCRF-CEM
UO-31 = system: UO-31
OVCAR-5 = system: OVCAR-5
SN12C = system: SN12C
Malme-3M = system: Malme-3M
OVCAR-4 = system: OVCAR-4
EKVX = system: EKVX
SK-OV-3 = system: SK-OV-3
NCI-H226 = system: NCI-H226
MOLT-4 = system: MOLT-4
SW-620 = system: SW-620
HT-29 = system: HT-29
K562 = system: K562
786-0 = system: 786-0
DMS-114 = system: DMS-114
ACHN = system: ACHN
OVCAR-8 = system: OVCAR-8
COLO 205 = system: COLO 205
A498 = system: A498
UACC-257 = system: UACC-257
IGROV-1 = system: IGROV-1
KM-20L2 = system: KM-20L2
KM12 = system: KM12
HCT-116 = system: HCT-116
SK-MEL-5 = system: SK-MEL-5
XF498 = system: XF498
NCI-H460 = system: NCI-H460
M14 = system: M14
SNB-78 = system: SNB-78
DLD-1 = system: DLD-1
SNB-75 = system: SNB-75
SR = system: SR
HCT-15 = system: HCT-15
RXF 393 = system: RXF 393
SF-295 = system: SF-295
A549 = system: A549
OVCAR-3 = system: OVCAR-3
TK-10 = system: TK-10
U-251 = system: U-251
M19-MEL = system: M19-MEL
NCI-H522 = system: NCI-H522
SK-MEL-28 = system: SK-MEL-28
HOP-92 = system: HOP-92
SK-MEL-2 = system: SK-MEL-2
CAKI-1 = system: CAKI-1

O=S1OC(c2ccccc2)(c2ccccc2)C(c2ccccc2)(c2ccccc2)O1
GI50 (SF-539): > 100 µM (inactive)
GI50 (RPMI-8226): 5.15 µM (inactive)
GI50 (UACC-62): > 100 µM (inactive)
GI50 (LOX IMVI): 2.56 µM (inactive)
GI50 (HOP-18): > 100 µM (inactive)
GI50 (DMS-273): > 100 µM (inactive)
GI50 (HOP-62): > 100 µM (inactive)
GI50 (SF-268): > 91.4 µM (inactive)
GI50 (HCC 2998): > 100 µM (inactive)
GI50 (SNB-19): > 100 µM (inactive)
GI50 (NCI-H23): > 52.7 µM (inactive)
GI50 (HL-60): 7.96 µM (inactive)
GI50 (LXFL 529): 7.45 µM (inactive)
GI50 (RXF 631): > 100 µM (inactive)
GI50 (CCRF-CEM): 7.01 µM (inactive)
GI50 (UO-31): > 29.7 µM (inactive)
GI50 (OVCAR-5): > 100 µM (inactive)
GI50 (SN12C): > 100 µM (inactive)
GI50 (Malme-3M): > 100 µM (inactive)
GI50 (OVCAR-4): 45.2 µM (inactive)
GI50 (EKVX): 48.3 µM (inactive)
GI50 (SK-OV-3): > 100 µM (inactive)
GI50 (NCI-H226): > 100 µM (inactive)
GI50 (MOLT-4): 5.26 µM (inactive)
GI50 (SW-620): > 100 µM (inactive)
GI50 (HT-29): 7.36 µM (inactive)
GI50 (K562): 25.1 µM (inactive)
GI50 (786-0): > 100 µM (inactive)
GI50 (DMS-114): 36.8 µM (inactive)
GI50 (ACHN): 41.7 µM (inactive)
GI50 (OVCAR-8): > 100 µM (inactive)
GI50 (COLO 205): > 100 µM (inactive)
GI50 (A498): > 100 µM (inactive)
GI50 (UACC-257): 46.6 µM (inactive)
GI50 (IGROV-1): > 100 µM (inactive)
GI50 (KM-20L2): 18 µM (inactive)
GI50 (KM12): 5.43 µM (inactive)
GI50 (HCT-116): 4.61 µM (inactive)
GI50 (SK-MEL-5): 15.4 µM (inactive)
GI50 (XF498): 56.2 µM (inactive)
GI50 (NCI-H460): > 30.1 µM (inactive)
GI50 (M14): > 100 µM (inactive)
GI50 (SNB-78): > 100 µM (inactive)
GI50 (DLD-1): > 73.8 µM (inactive)
GI50 (SNB-75): > 56.4 µM (inactive)
GI50 (SR): 8.93 µM (inactive)
GI50 (HCT-15): > 30.3 µM
GI50 (RXF 393): > 72.1 µM (inactive)
GI50 (SF-295): 14.1 µM (inactive)
GI50 (A549): 40 µM (inactive)
GI50 (OVCAR-3): > 100 µM (inactive)
GI50 (TK-10): > 100 µM (inactive)
GI50 (U-251): 25.1 µM (inactive)
GI50 (M19-MEL): > 86.7 µM (inactive)
GI50 (NCI-H522): > 50.1 µM (inactive)
GI50 (SK-MEL-28): > 100 µM (inactive)
GI50 (HOP-92): 7.74 µM (inactive)

CN1Cc2c(nc(-c3ccccc3)c[n+]2[O-])N(C)C1
GI50 (SF-539): > 100 µM (inactive)
GI50 (RPMI-8226): > 100 µM (inactive)
GI50 (UACC-62): > 100 µM (inactive)
GI50 (LOX IMVI): > 100 µM (inactive)
GI50 (HOP-18): > 100 µM (inactive)
GI50 (DMS-273): > 100 µM (inactive)
GI50 (HOP-62): > 100 µM (inactive)
GI50 (SF-268): > 100 µM (inactive)
GI50 (HCC 2998): > 100 µM (inactive)
GI50 (SK-MEL-2): > 100 µM (inactive)
GI50 (SNB-19): > 100 µM (inactive)
GI50 (NCI-H23): > 100 µM (inactive)
GI50 (HL-60): > 100 µM (inactive)
GI50 (LXFL 529): > 100 µM (inactive)
GI50 (RXF 631): > 100 µM (inactive)
GI50 (CCRF-CEM): > 100 µM (inactive)
GI50 (UO-31): > 100 µM (inactive)
GI50 (OVCAR-5): > 100 µM (inactive)
GI50 (SN12C): > 100 µM (inactive)
GI50 (Malme-3M): > 100 µM (inactive)
GI50 (OVCAR-4): > 100 µM (inactive)
GI50 (EKVX): > 100 µM (inactive)
GI50 (SK-OV-3): > 100 µM (inactive)
GI50 (NCI-H226): > 100 µM (inactive)
GI50 (MOLT-4): > 100 µM (inactive)
GI50 (SW-620): > 100 µM (inactive)
GI50 (HT-29): > 100 µM (inactive)
GI50 (K562): > 100 µM (inactive)
GI50 (786-0): > 100 µM (inactive)
GI50 (CAKI-1): > 100 µM (inactive)
GI50 (DMS-114): > 100 µM (inactive)
GI50 (ACHN): > 100 µM (inactive)
GI50 (OVCAR-8): > 100 µM (inactive)
GI50 (COLO 205): > 100 µM (inactive)
GI50 (A498): > 100 µM (inactive)
GI50 (UACC-257): > 100 µM (inactive)
GI50 (IGROV-1): > 100 µM (inactive)
GI50 (KM-20L2): > 100 µM (inactive)
GI50 (KM12): > 100 µM (inactive)
GI50 (SK-MEL-5): > 100 µM (inactive)
GI50 (XF498): > 100 µM (inactive)
GI50 (NCI-H460): > 100 µM (inactive)
GI50 (M14): > 100 µM (inactive)
GI50 (SNB-78): > 100 µM (inactive)
GI50 (DLD-1): > 100 µM (inactive)
GI50 (SNB-75): > 100 µM (inactive)
GI50 (HCT-15): > 100 µM
GI50 (SF-295): > 100 µM (inactive)
GI50 (A549): > 100 µM (inactive)
GI50 (OVCAR-3): > 100 µM (inactive)
GI50 (TK-10): > 100 µM (inactive)
GI50 (U-251): > 100 µM (inactive)
GI50 (M19-MEL): > 100 µM (inactive)
GI50 (NCI-H522): > 100 µM (inactive)
GI50 (SK-MEL-28): > 100 µM (inactive)
GI50 (HOP-92): > 100 µM (inactive)
